Columns and labels:
Striga hermontica [1] = assay: Herbicidal effect on Striga hermontica growth in a microtiter plate (procaulome length); assay type: in vivo; settings: for Striga inhibition: 2 mg/mL of buffer, procaulome size after 3 days at 30° C. with GR24
Description: The activity of the diacids on the parasitic plants Striga and Orobanche was tested by preparing solutions of the selected diacid in water or in phosphate buffer (50 mM, pH 7) at concentrations of 1 to 20 mg/mL.
1. In a 12-well microtiter plate, filter papers (Whatman 3) are placed at the bottom of the wells and moistened with sterile water. About 30 sterilized seeds (rinsed with 70% ethanol, then 1% (w/v) Ca(ClO)2 and Tween® 20, then thoroughly with water) of the holo- or hemiparasitic plants are placed, in each well, on the surface of the filter papers. After 10 days of incubation at 30° C. and in the dark, increasing amounts of a diacid or of culture supernatant are added, in the presence of a germination stimulant, GR24. After 3 days of incubation at 30° C., the development of the parasitic plants in the presence of a diacid or of culture supernatant is compared to the negative control (water, phosphate buffer or sterile culture medium), with a macroscope coupled to a camera. The length of the procaulomes (radicles) of the holo- or hemiparasitic plants is measured in order to express the phytotoxic capacity of the tested products.

Striga hermontica [2] = assay: Emergence of Striga seedlings in soil mesocosms with sorghum; assay type: in vivo; settings: soil mesocosm with sorghum, after 2 months
Description: 2. Striga hermontica seeds (about 100 seeds/pot) and sorghum seeds (1 seed/pot) were introduced simultaneously into soil mesocosms, in the presence of increasing amounts of malic acid (2 and 20 g/L) or of culture supernatant, then grown in a greenhouse or a plot. The emergence of Striga seedlings is estimated visually, after 2 months of incubation. Phytotoxic capacity is estimated by comparison with a control without added malic acid or culture supernatant. A decrease of 22% in the number of Striga seedlings having emerged, compared to the control condition, is observed in the presence of 2 g/L malic acid and of 90% in the presence of 20 g/L malic acid. In the presence of the bacterial supernatant, a decrease of 58% in the number of Striga compared to the control condition was observed.

O=C(O)/C=C\C(=O)O [Maleic acid]
Striga inhibition (Striga hermontica [1]): ++ (strong inhibition (procaulome size < 0.2 mm))

O=C(O)C#CC(=O)O [Acetylene dicarboxylic acid]
Striga inhibition (Striga hermontica [1]): ++ (strong inhibition (procaulome size < 0.2 mm))

O=C(O)CC(O)C(=O)O (racemic) [DL-Malic acid]
Striga inhibition (Striga hermontica [1]): + (weak inhibition (procaulome size between 0.2 and 0.8 mm))

O=C(O)CC(O)C(=O)O (stereo not shown) [malic acid]
decrease in the number of Striga seedlings having emerged, compared to the control condition (Striga hermontica [2]; 2 g/L malic acid): 22%
decrease in the number of Striga seedlings having emerged, compared to the control condition (Striga hermontica [2]; 20 g/L malic acid): 90%

O=C(O)C[C@H](O)C(=O)O [L-Malic acid]
Striga inhibition (Striga hermontica [1]): ++ (strong inhibition (procaulome size < 0.2 mm))
effect on procaulome growth (FIG. 1) (Striga hermontica [1]; supernatant of strain grown in Nfb*, L-malic acid 2 mg/mL in phosphate buffer): inhibitory effect

O=C(O)CC(=O)O [Malonic acid]
Striga inhibition (Striga hermontica [1]): ++ (strong inhibition (procaulome size < 0.2 mm))

O=C(O)C(=O)O [Oxalic acid]
Striga inhibition (Striga hermontica [1]): ++ (strong inhibition (procaulome size < 0.2 mm))

O=C(O)CCCC(=O)O [Glutaric acid]
Striga inhibition (Striga hermontica [1]): ++ (strong inhibition (procaulome size < 0.2 mm))

— patent US20170042148A1, “USE OF A DICARBOXYLIC ACID TO CONTROL THE GROWTH OF HOLOPARASITIC OR HEMIPARASITIC PLANTS” (UNIVERSITE CLAUDE BERNARD LYON I, priority 2014, published 2017)
